Measured values published in PubChem BioAssay AID274 (DTP/NCI, 2004).
Where “and” joins values, the source holds several entries; their conditions need not be identical. Equal values may be shown once. Toxic doses and inconclusive results are not listed. The calls were made as follows: active = survival T/C of 150% or more; inactive = T/C below 125% in these data.

System: BDF1 mice, Lewis lung carcinoma iv, survival T/C
Assay: NCI In Vivo Anticancer Drug Screen. Data for tumor model Lewis Lung Carcinoma (intravenous) in B6D2F1 (BDF1) mice
Details: endpoint: median survival time, schedule: Q01DX009 (ip), higher = longer survival
Description: The antitumor activity of compounds was measured in mice bearing transplantable tumors. Survival or tumor size were measured and the results are expressed as the measurement made in the treated group (T) divided by the measurement made in the vehicle treated control group (C). The tumor model used in this assay is Lewis Lung Carcinoma (intravenous) in B6D2F1 (BDF1) mice

[1] = dose: 12.5 mg/kg/injection, vehicle: saline with Tween-80
[2] = dose: 25.0 mg/kg/injection, vehicle: saline with Tween-80
[3] = dose: 50.0 mg/kg/injection, vehicle: saline with Tween-80
[4] = dose: 100.0 mg/kg/injection, vehicle: saline with Tween-80
[5] = dose: 200.0 mg/kg/injection, vehicle: saline with Tween-80
[6] = dose: 12.5 mg/kg/injection, vehicle: saline
[7] = dose: 25.0 mg/kg/injection, vehicle: saline
[8] = dose: 50.0 mg/kg/injection, vehicle: saline
[9] = dose: 100.0 mg/kg/injection, vehicle: saline

Measured: T/C

CCO/C=C1\SC(=S)N(c2ccccc2C)C1=O
inactive: [1] 96 % of control | [2] 94 % of control | [3] 100 % of control | [4] 106 % of control | [5] 99 % of control

Nc1ccn([C@@H](C=O)O[C@@H](C=O)CO)c(=O)n1
inactive: dose: 6.25 mg/kg/injection, vehicle: saline 96 % of control | [6] 105 % of control | [7] 100 % of control | [8] 96 % of control | [9] 97 % of control

Nc1nc2c(ncn2C2OC(CO)C(O)C2O)c(=O)[nH]1.Nc1nc2c(ncn2C2OC(CO)C(O)C2O)c(=O)[nH]1.[NH2-].[NH2-].[Pt+2] (stereo not drawn)
inactive: dose: 12.5 mg/kg/injection, vehicle: water 99 % of control | dose: 25.0 mg/kg/injection, vehicle: water 96 % of control | dose: 50.0 mg/kg/injection, vehicle: water 104 % of control | dose: 100.0 mg/kg/injection, vehicle: water 113 % of control

O=c1ccn(C2OC(CO)C(O)C2O)c(=O)[nH]1 (stereo not drawn)
inactive: dose: 32.0 mg/kg/injection, vehicle: Klucel (hydroxypropylcellulose) (HPC) 109 % of control | dose: 64.0 mg/kg/injection, vehicle: Klucel (hydroxypropylcellulose) (HPC) 96 % of control | dose: 128.0 mg/kg/injection, vehicle: Klucel (hydroxypropylcellulose) (HPC) 96 % of control | dose: 256.0 mg/kg/injection, vehicle: Klucel (hydroxypropylcellulose) (HPC) 110 % of control | dose: 512.0 mg/kg/injection, vehicle: Klucel (hydroxypropylcellulose) (HPC) 106 % of control

C[C@]12CC[C@@H]3c4ccc(OC(=O)Cc5ccc(N(CCCl)CCCl)cc5)cc4CC[C@H]3[C@@H]1CC[C@@H]2OC(=O)Cc1ccc(N(CCCl)CCCl)cc1
inactive: [1] 97 % of control | [2] 104 % of control | [3] 99 % of control | [4] 91 % of control | [5] 98 % of control | dose: 400.0 mg/kg/injection, vehicle: saline with Tween-80 100 % of control

CC(CNC(=O)CCOS(C)(=O)=O)NC(=O)CCOS(C)(=O)=O (stereo not drawn)
inactive: [9] 106 % of control

CC(=O)OCC(=O)[C@@]12OC(C)(C)O[C@@H]1C[C@H]1[C@@H]3CC(C=O)=C4C=C(OCCCl)CC[C@]4(C)[C@@]3(F)[C@@H](O)C[C@@]12C
inactive: dose: 1.56 mg/kg/injection, vehicle: Klucel (hydroxypropylcellulose) (HPC) 104 % of control | dose: 3.12 mg/kg/injection, vehicle: Klucel (hydroxypropylcellulose) (HPC) 100 % of control | dose: 3.13 mg/kg/injection, vehicle: Klucel (hydroxypropylcellulose) (HPC) 110 % of control | dose: 6.25 mg/kg/injection, vehicle: Klucel (hydroxypropylcellulose) (HPC) 102 % of control and 112 % of control | dose: 12.5 mg/kg/injection, vehicle: Klucel (hydroxypropylcellulose) (HPC) 104 % of control and 121 % of control

O=C(O)C(CSC(c1ccccc1)(c1ccccc1)c1ccccc1)N=Cc1cccs1 (stereo not drawn)
inactive: [6] 107 % of control | [7] 102 % of control | [8] 101 % of control

CC1(c2ccc(Cl)cc2)OC(=O)C(=Cc2ccc([N+](=O)[O-])s2)C(=O)O1 (stereo not drawn)
inactive: [1] 100 % of control | [2] 100 % of control | [3] 99 % of control | [4] 98 % of control

O=C(O)CC(=O)O.[NH-]C1CCCCC1[NH-].[Pt+2] (stereo not drawn)
inactive: dose: 12.5 mg/kg/injection, vehicle: dextrose 117 % of control | dose: 25.0 mg/kg/injection, vehicle: dextrose 88 % of control

Clc1ccc2c(Cl)ncnc2c1
inactive: [3] 107 % of control | [4] 118 % of control | [5] 111 % of control
